In ChEMBL document CHEMBL5528002, “Identification of selective 5-LOX and FLAP inhibitors as novel anti-inflammatory agents by ligand-based virtual screening” (Eur J Med Chem, 2024):
The source made the active and inactive calls. The rule behind the calls is not given here.

Tests used:
[1] = target: T1, Polyunsaturated fatty acid 5-lipoxygenase (Homo sapiens) (UniProt P09917); test: (§1) Inhibition of 5-LOX in human Neutrophil assessed as enzyme remaining activity at 10 uM using arachidonic acid as substrate preincubated with compound for 15 mins followed by substrate and A23187 addition measured after 10 mins by RP-HPLC analysis relative to control; type: cell-based; details: time 25.0 min
T1 sequence (whole entry): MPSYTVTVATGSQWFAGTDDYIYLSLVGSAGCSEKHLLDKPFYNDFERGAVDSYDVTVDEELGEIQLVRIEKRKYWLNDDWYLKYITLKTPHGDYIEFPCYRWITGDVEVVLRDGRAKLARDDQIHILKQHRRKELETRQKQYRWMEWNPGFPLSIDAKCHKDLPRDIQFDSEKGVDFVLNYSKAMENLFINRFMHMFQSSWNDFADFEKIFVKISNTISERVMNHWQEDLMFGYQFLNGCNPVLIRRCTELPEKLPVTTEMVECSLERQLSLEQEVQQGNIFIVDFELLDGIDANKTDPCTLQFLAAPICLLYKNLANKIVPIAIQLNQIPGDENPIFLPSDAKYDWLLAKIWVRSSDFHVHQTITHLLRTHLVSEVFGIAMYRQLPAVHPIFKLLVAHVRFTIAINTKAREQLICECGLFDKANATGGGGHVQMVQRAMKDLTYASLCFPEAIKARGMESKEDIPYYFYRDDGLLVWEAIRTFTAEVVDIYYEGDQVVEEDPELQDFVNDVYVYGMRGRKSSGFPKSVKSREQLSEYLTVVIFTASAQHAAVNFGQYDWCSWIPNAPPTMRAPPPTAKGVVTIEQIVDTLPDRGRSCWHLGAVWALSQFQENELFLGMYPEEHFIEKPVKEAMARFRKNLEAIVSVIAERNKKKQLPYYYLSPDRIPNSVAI

[2] = target: T2, Bifunctional epoxide hydrolase 2 (Homo sapiens) (UniProt P34913); test: Inhibition of human sEH assessed as enzyme remaining activity at 10 uM relative to control
T2 sequence (whole entry): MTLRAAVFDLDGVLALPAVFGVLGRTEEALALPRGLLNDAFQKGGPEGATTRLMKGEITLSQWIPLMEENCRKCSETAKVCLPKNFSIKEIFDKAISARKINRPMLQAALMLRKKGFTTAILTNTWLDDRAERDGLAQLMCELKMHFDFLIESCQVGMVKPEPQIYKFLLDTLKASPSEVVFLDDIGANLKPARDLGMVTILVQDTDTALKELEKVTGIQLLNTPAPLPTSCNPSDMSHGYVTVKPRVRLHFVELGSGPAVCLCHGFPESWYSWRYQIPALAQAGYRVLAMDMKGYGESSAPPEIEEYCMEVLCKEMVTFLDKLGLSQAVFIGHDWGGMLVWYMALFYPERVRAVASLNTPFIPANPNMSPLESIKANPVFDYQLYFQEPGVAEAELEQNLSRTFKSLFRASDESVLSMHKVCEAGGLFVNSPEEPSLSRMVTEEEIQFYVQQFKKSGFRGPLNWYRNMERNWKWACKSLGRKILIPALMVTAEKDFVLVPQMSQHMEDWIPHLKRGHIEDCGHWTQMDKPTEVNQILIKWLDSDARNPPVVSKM

[3] = target: T2, Bifunctional epoxide hydrolase 2 (Homo sapiens); test: Inhibition of human sEH at 10 uM relative to control
[4] = target: T1, Polyunsaturated fatty acid 5-lipoxygenase (Homo sapiens); test: as §1, with “of human recombinant” for “of”, “5-LOX expressed” for “5-LOX”, “Escherichia coli BL21(DE3)” for “human Neutrophil”, “CaCl2” for “A23187”; details: time 25.0 min
[5] = target: T3, Prostaglandin E synthase (Homo sapiens) (UniProt O14684); test: Inhibition of human mPGES-1 at 10 uM relative to control
T3 sequence (whole entry): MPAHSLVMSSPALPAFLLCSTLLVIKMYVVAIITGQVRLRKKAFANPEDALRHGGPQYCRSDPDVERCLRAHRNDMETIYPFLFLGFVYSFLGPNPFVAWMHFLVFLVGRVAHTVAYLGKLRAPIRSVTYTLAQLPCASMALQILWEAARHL

[6] = target: T1, Polyunsaturated fatty acid 5-lipoxygenase (Homo sapiens); test: Inhibition of 5-LOX in human Neutrophil at 10 uM preincubated with compound for 15 mins followed by A23187 addition measured after 10 mins by RP-HPLC analysis relative to control; type: cell-based; details: time 25.0 min
[7] = target: T1, Polyunsaturated fatty acid 5-lipoxygenase (Homo sapiens); test: Inhibition of 5-LOX in human Neutrophil assessed as enzyme remaining activity at 10 uM preincubated with compound for 15 mins followed by A23187 addition measured after 10 mins by RP-HPLC analysis relative to control; type: cell-based; details: time 25.0 min
[8] = target: T3, Prostaglandin E synthase (Homo sapiens); test: Inhibition of human mPGES-1 assessed as enzyme remaining activity at 10 uM relative to control

Cc1ccc(Nc2nnc(-c3ccc4c(c3)OCO4)o2)c(C)c1
Activity [1]: 69.8% | Activity [2]: 90.6% | inhibition [3]: > 35% | Activity [4]: 14% | inhibition [5]: < 40% | inhibition [6]: inactive | Activity [7]: 106% | Activity [8]: 57.9%

CC1CCc2c(c(CC3CC(=O)NC(=O)C3)nn2-c2ccccc2)C1 (stereo not given)
Activity [1]: 101% | Activity [2]: 86.2% | inhibition [3]: > 35% | Activity [4]: 91.7% | inhibition [5]: inactive | inhibition [6]: inactive | Activity [7]: 95.6% | Activity [8]: 89.6%

NNC(=O)CCc1ccc2ccc3ccccc3c2c1
Activity [1]: 93.1% | Activity [2]: 92.9% | inhibition [3]: > 35% | Activity [4]: 75.1% | inhibition [5]: inactive | inhibition [6]: inactive | Activity [7]: 80.2% | Activity [8]: 80.5%

O=C(/C=C/c1ccccc1)NCCC1(O)C(=O)Nc2ccccc21 (stereo not given)
Activity [2]: 88.2% | inhibition [3]: > 35% | inhibition [5]: inactive | inhibition [6]: inactive | Activity [8]: 98.2%

CC(=O)c1cccc(NC(=O)Oc2ccc3c(C)cc(=O)oc3c2)c1
Activity [1]: 106% | Activity [2]: 196% | inhibition [3]: > 35% | Activity [4]: 115% | inhibition [5]: inactive | inhibition [6]: inactive | Activity [7]: 104% | Activity [8]: 93.4%

O=C(O)c1cc(O)c2cc(Cc3ccccc3)ccc2n1
Activity [2]: 147% | inhibition [3]: > 35% | inhibition [5]: inactive | inhibition [6]: inactive | Activity [8]: 98.3%

O=C(O)c1ccccc1C(=O)OC1CCc2ccccc2C1 (stereo not given)
Activity [1]: 103% | Activity [2]: 87.4% | inhibition [3]: > 35% | Activity [4]: 110% | inhibition [5]: inactive | inhibition [6]: inactive | Activity [7]: 105% | Activity [8]: 86.5%

O=C(NCc1ccco1)Nc1cccc(-c2ccccc2)c1
Activity [1]: 92.4% | Activity [2]: 91.4% | inhibition [3]: > 35% | Activity [4]: 96.4% | inhibition [5]: inactive | inhibition [6]: inactive | Activity [7]: 97% | Activity [8]: 88.1%

O=C(O)c1cnc2cc(OCCc3ccc(F)cc3)ccc2c1O
Activity [1]: 87.6% | Activity [2]: 72.5% | inhibition [3]: > 35% | Activity [4]: 66.9% | inhibition [5]: inactive | inhibition [6]: inactive | Activity [7]: 89.1% | Activity [8]: 75.9%

CC(=O)c1cccc2cc(CC(=O)c3ccccc3)c(=O)oc12
Activity [1]: 94.9% | Activity [2]: 79.7% | inhibition [3]: > 35% | Activity [4]: 105% | inhibition [5]: < 40% | inhibition [6]: inactive | Activity [7]: 81.6% | Activity [8]: 59%

N=c1[nH]nc2nc(CC(=O)c3ccc4ccccc4c3)c(=O)[nH]n12
inhibition [3]: > 35% | inhibition [5]: inactive | inhibition [6]: inactive

N=C(N)/N=C(/C=C/c1ccccc1)CC1OC(=O)c2ccccc21 (stereo not given)
Activity [1]: 68% | Activity [2]: 92.9% | inhibition [3]: > 35% | Activity [4]: 58.3% | inhibition [5]: > 50% | inhibition [6]: inactive | Activity [7]: 85.5% | Activity [8]: 40.9%

O=C(c1ccc2ccccc2n1)C(O)c1ccc2ccccc2n1 (stereo not given)
Activity [1]: 99.6% | inhibition [3]: > 35% | Activity [4]: 99.8% | inhibition [5]: inactive | inhibition [6]: inactive | Activity [7]: 111%

O=C1c2ccccc2C(=O)N1CCc1nc(-c2ccccc2)c[nH]1
Activity [1]: 99.2% | Activity [2]: 41.5% | inhibition [3]: 58% | Activity [4]: 90.4% | inhibition [5]: inactive | inhibition [6]: inactive | Activity [7]: 100% | Activity [8]: 92.5%

Cc1cc(=O)oc(C)c1C(=O)Oc1ccc2ccccc2c1
Activity [1]: 79.5% | Activity [2]: 75.7% | inhibition [3]: > 35% | Activity [4]: 91.1% | inhibition [5]: inactive | inhibition [6]: inactive | Activity [7]: 87.9% | Activity [8]: 88.2%

NS(=O)(=O)c1ccc(NCc2cnc3ccccc3c2)cc1
Activity [1]: 95.3% | Activity [2]: 112% | inhibition [3]: > 35% | Activity [4]: 96.5% | inhibition [5]: inactive | inhibition [6]: inactive | Activity [7]: 90.6% | Activity [8]: 86.3%

Cn1c(=O)c2nc(CCCc3nc4ccccc4[nH]3)[nH]c2n(C)c1=O
Activity [1]: 98.3% | Activity [2]: 92.7% | inhibition [3]: > 35% | Activity [4]: 98.5% | inhibition [5]: inactive | inhibition [6]: inactive | Activity [7]: 113% | Activity [8]: 90.9%

O=C1CCC(CCc2nc3ccccc3[nH]2)(c2ccccc2)C(=O)N1 (stereo not given)
Activity [1]: 110% | Activity [2]: 98.7% | inhibition [3]: > 35% | Activity [4]: 106% | inhibition [5]: inactive | inhibition [6]: inactive | Activity [7]: 102% | Activity [8]: 92.7%

N=c1c2c(ncn1Cc1ccccc1)CCN(Cc1ccccc1)C2
Activity [1]: 80.1% | Activity [2]: 91.6% | inhibition [3]: > 35% | Activity [4]: 96.2% | inhibition [5]: inactive | inhibition [6]: inactive | Activity [7]: 82.3% | Activity [8]: 93.9%

O=C(/C=C/c1ccccc1)CCc1c(O)c2ccccc2oc1=O
Activity [1]: 60.1% | Activity [2]: 108% | inhibition [3]: > 35% | Activity [4]: 67.6% | inhibition [5]: < 40% | inhibition [6]: inactive | Activity [7]: 47.6% | Activity [8]: 52.6%

Cc1ccn(C(=O)C2=Cc3ccccc3OC2)c(=N)c1
Activity [2]: 121% | inhibition [3]: > 35% | inhibition [5]: inactive | inhibition [6]: inactive | Activity [8]: 84.3%

O=C1N=C(Nc2nc3ccccc3[nH]2)OC1c1ccccc1 (stereo not given)
Activity [1]: 102% | Activity [2]: 99.9% | inhibition [3]: > 35% | Activity [4]: 94.4% | inhibition [5]: inactive | inhibition [6]: inactive | Activity [7]: 121% | Activity [8]: 83.6%

O=C1Nc2ccccc2/C1=N/NS(=O)(=O)c1ccc(C(=O)O)cc1
Activity [1]: 88.2% | Activity [2]: 111% | inhibition [3]: > 35% | Activity [4]: 105% | inhibition [5]: inactive | inhibition [6]: inactive | Activity [7]: 93.1% | Activity [8]: 94.2%

O=C1C(C(O)c2ccccc2)CCCC1C(O)c1ccccc1 (stereo not given)
Activity [1]: 77.9% | Activity [2]: 132% | inhibition [3]: > 35% | Activity [4]: 103% | inhibition [5]: inactive | inhibition [6]: inactive | Activity [7]: 152% | Activity [8]: 81.1%

O=C(c1nc2ccc(Cl)cc2nc1O)C(O)c1ccc2c(c1)OCO2 (stereo not given)
Activity [1]: 90.7% | Activity [2]: 93.8% | inhibition [3]: > 35% | Activity [4]: 81.2% | inhibition [5]: inactive | inhibition [6]: inactive | Activity [7]: 101% | Activity [8]: 89.4%

CC(=O)NC(CC(=O)Nc1cccc2c1Cc1ccccc1-2)C(=O)O (stereo not given)
Activity [1]: 102% | Activity [2]: 81% | inhibition [3]: > 35% | Activity [4]: 107% | inhibition [5]: inactive | inhibition [6]: inactive | Activity [7]: 94.2% | Activity [8]: 96.3%

O=C1C(=O)C(CCc2ccccc2)C(=O)/C1=C/c1ccccc1 (stereo not given)
Activity [1]: 80.6% | Activity [2]: 101% | inhibition [3]: > 35% | Activity [4]: 110% | inhibition [5]: > 50% | inhibition [6]: inactive | Activity [7]: 105% | Activity [8]: 27.4%
